Data published in patent US5010102A, “Anti-ulcer 5-(2-substituted ethenyl)-3(2H)-furanones” (American Home Products Corp., priority 1990, dated 1991).

Test system: gastric mucosal lesions produced by ethanol
Experiment: prevention of gastric mucosal lesions produced by ethanol in rats (cytoprotective/anti-ulcer, Robert et al.)
Assay type: in vivo
Conditions: Rattus norvegicus, oral, usually 1 hour before ethanol, male Sprague-Dawley rats; for ED50: calculated from a series of dosage levels, read-out: ED50 (dose at which half the animals did not develop lesions significantly different from the control group); for inhibition in vivo at 25 mg/kg / inhibition in vivo at 10 mg/kg: read-out: percentage inhibition of lesion formation
Description: The rats were placed in individual cages and denied water 2 hours or more before testing. At a fixed time before administration of ethanol (usually 1 hour), the animals were orally administered either the test compound or its water-carboxymethylcellulose vehicle. Ethanol was then administered orally at a dose of 1 mL per animal. One hour after administration of the ethanol, the animals were sacrificed and their stomachs removed, cut along the greater curvature and flushed clean with tap water. Macroscopic lesions on the gastric mucosa were graded from 0-3 based upon the absence of lesions to the presence of lesions which approximate 6 millimeters in length. Comparison of the treated group with the control group permits expression of the results as percentage inhibition of lesion formation as a direct measure of cytoprotection. […] The results of these studies are given at the end of each example illustrating the preparation of the tested compound, supra, as the percent inhibition or ED50 where the latter value was determined.

## CC1(C)OC(/C=C/c2ccsc2)=CC1=O [Example 22, 2,2-Dimethyl-5-[2-(3-thienyl)ethenyl]-3(2H)-furanone]
  ED50: 4 mg/kg

## CSc1ccc(/C=C/C2=CC(=O)C(C)(C)O2)cc1 [Example 12, (E)-2,2-Dimethyl-5-[2-[4-(methylthio)phenyl]ethenyl]-3(2H)-furanone]
  inhibition in vivo at 25 mg/kg: 5%

## CC1(C)OC(/C=C/c2ccc(F)c(F)c2)=CC1=O [Example 4, 5-[2-(3,4-Difluorophenyl)ethenyl]-2,2-dimethyl-3(2H)-furanone]
  inhibition in vivo at 25 mg/kg: 47%

## CC1(C)OC(/C=C/c2cc3ccccc3s2)=CC1=O [Example 24, 5-[2-(Benzo[b]thien-2-yl)ethenyl]-2,2-dimethyl-3(2H)-furanone]
  inhibition in vivo at 10 mg/kg: 17%

## Cn1cccc1/C=C/C1=CC(=O)C(C)(C)O1 [Example 16, 2,2-Dimethyl-5-[2-(1-methyl-2-pyrrolyl)ethenyl]-3(2H)-furanone]
  inhibition in vivo at 10 mg/kg: 32%

## CC1(c2ccc(F)cc2)OC(/C=C/c2ccccn2)=CC1=O (stereo not drawn) [Example 32, 2-Methyl-2-(4-fluorophenyl)-5-[2-(2-pyridinyl)ethenyl]-3(2H)-furanone]
  inhibition in vivo at 10 mg/kg: 92%
  ED50: 3.5 mg/kg

## CC1(C)OC(/C=C/c2cc(Cl)cc(Cl)c2)=CC1=O [Example 10, 5-[2-(3,5-Dichlorophenyl)ethenyl]-2,2-dimethyl-3(2H)-furanone]
  ED50: 9 mg/kg

## CC1(C)OC(/C=C/c2ccc(Br)cc2)=CC1=O [Example 5, (E)-2,2-Dimethyl-5-[2-(4-bromophenyl)ethenyl]-3(2H)-furanone]
  inhibition in vivo at 25 mg/kg: 63%

## CC1(C)OC(/C=C/c2cnccn2)=CC1=O [Example 21, 2,2-Dimethyl-5-[2-(2-pyrazinyl)ethenyl]-3(2H)-furanone]
  inhibition in vivo at 10 mg/kg: 56%

## CC1(C)OC(/C=C/c2ccc(C#N)cc2)=CC1=O [Example 14, 4-[2-(2,3-Dihydro-2,2-dimethyl-3-oxo-5-furanyl)ethenyl]benzonitrile]
  ED50: 15 mg/kg

## CC1(c2ccccc2)OC(/C=C/c2ccncc2)=CC1=O (stereo not drawn) [Example 27, 2-Methyl-2-phenyl-5-[2-(4-pyridinyl)ethenyl]-3(2H)-furanone]
  inhibition in vivo at 10 mg/kg: 44%

## COc1cc(/C=C/C2=CC(=O)C(C)(C)O2)cc(OC)c1OC [Example 1, 2,2-Dimethyl-5-[2-(3,4,5-trimethoxyphenyl)ethenyl]-3(2H)-furanone]
  inhibition in vivo at 25 mg/kg: 81%

## CC1(C)OC(/C=C/c2ccc(C(F)(F)F)cc2)=CC1=O [Example 11, 2,2-Dimethyl-5-[2-[4-(trifluoromethyl)phenyl]ethenyl]-3(2H)-furanone]
  inhibition in vivo at 25 mg/kg: 30%

## CC1(C)OC(/C=C/c2ccc(F)cc2)=CC1=O [Example 2, 2,2-Dimethyl-5-[2-(4-fluorophenyl)ethenyl]-3(2H)-furanone]
  ED50: 11 mg/kg

## CC1(C)OC(/C=C/c2ccncc2)=CC1=O [Example 18, 2,2-Dimethyl-5-[2-(4-pyridinyl)ethenyl]-3(2H)-furanone]
  ED50: 4 mg/kg

## CC1(c2ccccc2)OC(/C=C/c2cccnc2)=CC1=O (stereo not drawn) [Example 26, 2-Phenyl-2-methyl-5-[2-(3-pyridinyl)ethenyl]-3(2H)-furanone]
  ED50: 5 mg/kg

## CC1(c2ccccc2)OC(/C=C/c2ccc(C#N)cc2)=CC1=O (stereo not drawn) [Example 29, 4-[2-[2,3-Dihydro-2-methyl-3-oxo-2-phenyl-5-furanyl]ethenyl]benzonitrile]
  inhibition in vivo at 10 mg/kg: 4%

## CC1(C)OC(/C=C/c2ccnc3ccccc23)=CC1=O [Example 20, 5-[2-(4-Quinolinyl)ethenyl]-2,2-dimethyl-3(2H)-furanone]
  ED50: 2.5 mg/kg

## CC1(C)OC(/C=C/c2cccs2)=CC1=O [Example 23, 2,2-Dimethyl-5-[2-(2-thienyl)ethenyl]-3(2H)-furanone]
  inhibition in vivo at 10 mg/kg: 1%

## CC1(C)OC(/C=C/c2ccc(S(C)(=O)=O)cc2)=CC1=O [Example 13, 2,2-Dimethyl-5-[2-[4-(methylsulfonyl)phenyl]ethenyl]-3(2H)-furanone]
  inhibition in vivo at 25 mg/kg: 56%
  ED50: 10.6 mg/kg

## CC1(C)OC(/C=C/c2ccc(F)cc2F)=CC1=O [Example 3, 5-[2-(2,4-Difluorophenyl)ethenyl]-2,2-dimethyl-3(2H)-furanone]
  inhibition in vivo at 25 mg/kg: 52%

## CC1(C)OC(/C=C/c2ccoc2)=CC1=O [Example 25, 5-[2-(3-Furanyl)ethenyl]-2,2-dimethyl-3(2H)-furanone]
  inhibition in vivo at 10 mg/kg: 35%

## CC1(C)OC(/C=C/c2ccc(Cl)cc2)=CC1=O [Example 6, 2,2-Dimethyl-5-[2-(4-chlorophenyl)ethenyl]-3(2H)-furanone]
  ED50: 10.3 mg/kg

## CC1(c2ccc(F)cc2)OC(/C=C/c2ccsc2)=CC1=O (stereo not drawn) [Example 33, 2-(4-Fluorophenyl)-2-methyl-5-[2-(3-thienyl)ethenyl]-3(2H)-furanone]
  inhibition in vivo at 10 mg/kg: 22%

## CC1(c2ccccc2)OC(/C=C/c2ccccn2)=CC1=O (stereo not drawn) [Example 28, 2-Methyl-2-phenyl-5-[2-(2-pyridinyl)ethenyl]-3(2H)-furanone]
  ED50: 6 mg/kg

## CC1(c2ccc(F)cc2)OC(/C=C/c2ccc(C#N)cc2)=CC1=O (stereo not drawn) [Example 31, 4-[2-[2,3-Dihydro-2-(4-fluorophenyl)-2-methyl-3-oxo-5-furanyl]ethenyl]benzonitrile]
  inhibition in vivo at 10 mg/kg: 1%

## CC1(C)OC(/C=C/c2cccnc2)=CC1=O [Example 19, 2,2-Dimethyl-5-[2-(3-pyridinyl)ethenyl]-3(2H)-furanone]
  ED50: 9.3 mg/kg

## CC1(C)OC(/C=C/c2ccccn2)=CC1=O [Example 17, 2,2-Dimethyl-5-[2-(2-pyridinyl)ethenyl]-3(2H)-furanone]
  ED50: 9 mg/kg
